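Assay format: 96-well plates, 48-hour exposure. GI50 marks 50% less growth.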 The source made the active and inactive calls. Cut-off read from the data, not from the text of the source: active = GI50 up to about 1.1 µM and inactive = higher.
Legend:
Test in all cases: NCI-60 cell line screen, 48 h
786-0 = test system: 786-0
COLO 205 = test system: COLO 205
DMS-273 = test system: DMS-273
HCT-15 = test system: HCT-15
HT-29 = test system: HT-29
IGROV-1 = test system: IGROV-1
M14 = test system: M14
OVCAR-3 = test system: OVCAR-3
SF-268 = test system: SF-268
SF-295 = test system: SF-295
SF-539 = test system: SF-539
SNB-75 = test system: SNB-75
TK-10 = test system: TK-10
U-251 = test system: U-251
UACC-257 = test system: UACC-257
UACC-62 = test system: UACC-62
XF498 = test system: XF498
KM12 = test system: KM12
Hs-578T = test system: Hs-578T
MDA-N = test system: MDA-N

SMILES | GI50 (786-0) | GI50 (COLO 205) | GI50 (DMS-273) | GI50 (HCT-15) [µM] | GI50 (HT-29) | GI50 (IGROV-1) | GI50 (M14) | GI50 (OVCAR-3) | GI50 (SF-268) | GI50 (SF-295) | GI50 (SF-539) | GI50 (SNB-75) | GI50 (TK-10) | GI50 (U-251) | GI50 (UACC-257) | GI50 (UACC-62) | GI50 (XF498) | GI50 (KM12) | GI50 (Hs-578T) | GI50 (MDA-N)
O=C(O)[C@H](NS(=O)(=O)c1ccc(F)cc1)c1ccccc1 | > 100 µM (inactive) | > 100 µM (inactive) | > 100 µM (inactive) | > 100 | > 100 µM (inactive) | > 100 µM (inactive) | > 100 µM (inactive) | > 100 µM (inactive) | > 100 µM (inactive) | > 100 µM (inactive) | > 100 µM (inactive) | > 100 µM (inactive) | > 100 µM (inactive) | > 100 µM (inactive) | > 100 µM (inactive) | > 100 µM (inactive) | > 100 µM (inactive) | – | – | –
CN/C(=N/C#N)NCc1ccccc1 | > 100 µM (inactive) | > 100 µM (inactive) | > 100 µM (inactive) | > 100 | > 100 µM (inactive) | > 100 µM (inactive) | > 100 µM (inactive) | > 100 µM (inactive) | > 100 µM (inactive) | > 100 µM (inactive) | > 100 µM (inactive) | > 100 µM (inactive) | > 100 µM (inactive) | > 100 µM (inactive) | > 100 µM (inactive) | – | > 100 µM (inactive) | > 100 µM (inactive) | – | –
Cc1cc(N(CCC#N)CCC#N)ccc1/C(Sc1ccccc1)=C(\NC(=O)/C=C/c1ccccc1)C(=O)Sc1ccccc1 | 2.28 µM (inactive) | 2.55 µM (inactive) | 6.44 µM (inactive) | 3.73 | 2.91 µM (inactive) | 0.805 µM (active) | 1.82 µM (inactive) | 2.92 µM (inactive) | 0.565 µM (active) | 3.17 µM (inactive) | 1.47 µM (inactive) | 2.13 µM (inactive) | 5.35 µM (inactive) | 0.82 µM (active) | 5.53 µM (inactive) | 2.82 µM (inactive) | 12 µM (inactive) | 3.14 µM (inactive) | – | –
COC(=O)C(=NNc1ccccc1[N+](=O)[O-])C(=O)OC | > 100 µM (inactive) | > 100 µM (inactive) | > 100 µM (inactive) | – | > 100 µM (inactive) | > 100 µM (inactive) | – | – | > 100 µM (inactive) | > 100 µM (inactive) | > 100 µM (inactive) | – | > 100 µM (inactive) | > 100 µM (inactive) | > 100 µM (inactive) | – | 41.2 µM (inactive) | > 100 µM (inactive) | – | –
Cc1nc(N)nc(N)c1CCCCc1ccccc1 | 4.52 µM (inactive) | 8.43 µM (inactive) | 4.7 µM (inactive) | 5.97 | 2.47 µM (inactive) | 5.41 µM (inactive) | 6.21 µM (inactive) | 9.95 µM (inactive) | 11 µM (inactive) | 6.65 µM (inactive) | 10.7 µM (inactive) | 47 µM (inactive) | 43.2 µM (inactive) | 11.2 µM (inactive) | 10.2 µM (inactive) | 5.28 µM (inactive) | – | 18.1 µM (inactive) | – | –
COc1cc2cccc(/N=C\c3cccc(OC)c3OC(C)C)c2cc1OC | 18.5 µM (inactive) | 36.2 µM (inactive) | – | – | 23.2 µM (inactive) | 24 µM (inactive) | 17.9 µM (inactive) | 19.4 µM (inactive) | 24.4 µM (inactive) | 19 µM (inactive) | – | 21.7 µM (inactive) | 25.6 µM (inactive) | 19.7 µM (inactive) | 20.8 µM (inactive) | 19.6 µM (inactive) | 26.8 µM (inactive) | 19 µM (inactive) | – | –
COc1ccc([N+]2=NC(c3ccc([N+](=O)[O-])cc3)=NN(c3ccccc3)C2)cc1 | > 100 µM (inactive) | 68.2 µM (inactive) | > 10 µM (inactive) | 24.8 | 34 µM (inactive) | 39 µM (inactive) | – | 42.5 µM (inactive) | 97.7 µM (inactive) | > 10 µM (inactive) | – | – | > 100 µM (inactive) | 37.3 µM (inactive) | 30.1 µM (inactive) | – | 55.6 µM (inactive) | – | – | –
NC(=S)N/N=C(/CCN1CCCC1)CC(C1=C(O)C2=CCCCC2OC1=O)c1ccccc1 (stereo unspecified) | > 100 µM (inactive) | 54.1 µM (inactive) | – | > 100 | > 100 µM (inactive) | > 100 µM (inactive) | > 100 µM (inactive) | > 100 µM (inactive) | > 100 µM (inactive) | > 100 µM (inactive) | > 100 µM (inactive) | > 100 µM (inactive) | > 100 µM (inactive) | > 100 µM (inactive) | > 100 µM (inactive) | > 100 µM (inactive) | > 100 µM (inactive) | > 100 µM (inactive) | – | –
Cc1cccc(-n2c(N)c(-c3nc4ccccc4[nH]3)sc2=S)c1 | 24.4 µM (inactive) | 23.8 µM (inactive) | 20.1 µM (inactive) | 20.7 | 23.1 µM (inactive) | 30.8 µM (inactive) | 25.3 µM (inactive) | 25 µM (inactive) | 76.6 µM (inactive) | 28.1 µM (inactive) | 20.4 µM (inactive) | 50 µM (inactive) | 29.5 µM (inactive) | 21.8 µM (inactive) | 28.6 µM (inactive) | 18.4 µM (inactive) | – | 22 µM (inactive) | – | –
COc1ccc(C2C(C(=O)O)=C(CO)Oc3cc4c(cc32)OCO4)c(OC)c1 (stereo unspecified) | > 100 µM (inactive) | 68.7 µM (inactive) | 60.3 µM (inactive) | 67.9 | 67.6 µM (inactive) | > 100 µM (inactive) | > 100 µM (inactive) | 57.5 µM (inactive) | – | 62.7 µM (inactive) | 70 µM (inactive) | > 100 µM (inactive) | > 100 µM (inactive) | 81.1 µM (inactive) | > 100 µM (inactive) | 57.3 µM (inactive) | 9.73 µM (inactive) | – | – | –
N=C(N)NS(=O)(=O)c1ccc(NC(=O)c2cccc3cc4ccccc4nc23)cc1 | 67.9 µM (inactive) | > 100 µM (inactive) | > 100 µM (inactive) | > 100 | > 100 µM (inactive) | > 100 µM (inactive) | > 100 µM (inactive) | > 100 µM (inactive) | 88.5 µM (inactive) | > 100 µM (inactive) | 25.5 µM (inactive) | 95.1 µM (inactive) | > 100 µM (inactive) | 87.7 µM (inactive) | > 100 µM (inactive) | > 100 µM (inactive) | 99.5 µM (inactive) | 30.8 µM (inactive) | – | –
CCOC(=O)Cn1c(=O)[nH]c(=O)c2c1ncn2Cc1ccccc1 | > 100 µM (inactive) | > 100 µM (inactive) | > 100 µM (inactive) | > 100 | > 100 µM (inactive) | > 100 µM (inactive) | > 100 µM (inactive) | > 100 µM (inactive) | > 100 µM (inactive) | > 100 µM (inactive) | > 100 µM (inactive) | > 100 µM (inactive) | > 100 µM (inactive) | > 100 µM (inactive) | > 100 µM (inactive) | > 100 µM (inactive) | > 100 µM (inactive) | > 100 µM (inactive) | – | –
O=[N+]([O-])c1ccc(C2=Nn3cnnc3SC2)o1 | 17.3 µM (inactive) | – | 17.6 µM (inactive) | 12 | 11.3 µM (inactive) | > 10 µM (inactive) | 15.1 µM (inactive) | 17.1 µM (inactive) | 19.6 µM (inactive) | 18.3 µM (inactive) | 17.6 µM (inactive) | 25.3 µM (inactive) | 39.7 µM (inactive) | 16.3 µM (inactive) | 15.5 µM (inactive) | > 10 µM (inactive) | 16.6 µM (inactive) | 18.3 µM (inactive) | – | –
O=C(Nc1ccc([N+](=O)[O-])cc1[N+](=O)[O-])C(=O)C(C(=O)c1ccc(Cl)c(Cl)c1)C1OC(=O)c2ccccc21 (stereo unspecified) | 18.5 µM (inactive) | 21.6 µM (inactive) | 31 µM (inactive) | 27.2 | 25.8 µM (inactive) | 22.2 µM (inactive) | > 10 µM (inactive) | 27.7 µM (inactive) | 25.3 µM (inactive) | 17.8 µM (inactive) | > 10 µM (inactive) | > 100 µM (inactive) | 32.1 µM (inactive) | 30.3 µM (inactive) | 22.6 µM (inactive) | 16.3 µM (inactive) | – | 18.4 µM (inactive) | – | –
C/C=N\N1C(=O)c2ccccc2C1=O | > 100 µM (inactive) | – | > 100 µM (inactive) | > 100 | > 100 µM (inactive) | > 100 µM (inactive) | > 100 µM (inactive) | > 100 µM (inactive) | > 100 µM (inactive) | > 100 µM (inactive) | > 100 µM (inactive) | > 100 µM (inactive) | > 100 µM (inactive) | – | > 100 µM (inactive) | > 100 µM (inactive) | > 100 µM (inactive) | > 100 µM (inactive) | – | –
CC(=O)Nc1[nH]n(C)c(=O)c1-c1nnc(C)s1 | > 100 µM (inactive) | > 100 µM (inactive) | > 100 µM (inactive) | > 100 | > 100 µM (inactive) | > 100 µM (inactive) | > 100 µM (inactive) | > 100 µM (inactive) | > 100 µM (inactive) | – | > 100 µM (inactive) | > 100 µM (inactive) | > 100 µM (inactive) | > 100 µM (inactive) | > 100 µM (inactive) | – | > 100 µM (inactive) | > 100 µM (inactive) | – | –
Cc1cn([C@H]2C[C@H](N=[N+]=[N-])[C@@H](CO)O2)c(=O)[nH]c1=O [ZIDOVUDINE] | > 100 µM (inactive) | 98.4 µM (inactive) | > 100 µM (inactive) | > 100 | 238 µM (inactive) | > 100 µM (inactive) | > 100 µM (inactive) | > 100 µM (inactive) | – | – | – | – | 656 µM (inactive) | – | > 100 µM (inactive) | 239 µM (inactive) | – | 90.8 µM (inactive) | 885 µM (inactive) | 655 µM (inactive)

Reference: ChEMBL document CHEMBL1201862, “PubChem BioAssay data set” (2004)
